# Data taken from the NIST ThermoML archive (doi:10.1021/acs.jced.5b00181).
# Numbers after ± are expanded uncertainties.
# What was measured:
# [1] = xn = mol fraction of the nth substance listed; conditions: 101 kPa, Liquid, x2 = 0; for viscosity: Falling or rolling sphere viscometry; for speed of sound: Frequency=3 MHz, Sing-around technique in a fixed-path interferometer; for mass density: Vibrating tube method
# [2] = 101 kPa, Liquid; for viscosity: Falling or rolling sphere viscometry; for speed of sound: Frequency=3 MHz, Sing-around technique in a fixed-path interferometer; for mass density: Vibrating tube method
Structure (SMILES),viscosity ([1]; 278.15 K),speed of sound ([1]; 278.15 K),mass density ([1]; 278.15 K),viscosity ([1]; 298.15 K),speed of sound ([1]; 298.15 K),mass density ([1]; 298.15 K),viscosity ([1]; 318.15 K),speed of sound ([1]; 318.15 K),mass density ([1]; 318.15 K),viscosity ([1]; 338.15 K),speed of sound ([1]; 338.15 K),mass density ([1]; 338.15 K),further results
CCCO [propan-1-ol] + CCCC[n+]1ccn(C)c1.O=S(=O)([N-]S(=O)(=O)C(F)(F)F)C(F)(F)F,3.191 ± 0.072 mPa·s,1275.5 ± 0.82 m/s,815.46 ± 2 kg/m3,1.936 ± 0.07 mPa·s,1205.3 ± 0.8 m/s,799.55 ± 2 kg/m3,1.242 ± 0.069 mPa·s,1137.5 ± 0.78 m/s,783.18 ± 2 kg/m3,0.836 ± 0.068 mPa·s,1070.8 ± 0.76 m/s,765.96 ± 2 kg/m3,–
CCCO [propan-1-ol] + CCCCCC[n+]1ccn(C)c1.O=S(=O)([N-]S(=O)(=O)C(F)(F)F)C(F)(F)F,3.191 ± 0.072 mPa·s,1275.5 ± 0.82 m/s,815.46 ± 2 kg/m3,1.936 ± 0.07 mPa·s,1205.3 ± 0.8 m/s,799.55 ± 2 kg/m3,1.242 ± 0.069 mPa·s,1137.5 ± 0.78 m/s,783.18 ± 2 kg/m3,0.836 ± 0.068 mPa·s,1070.8 ± 0.76 m/s,765.96 ± 2 kg/m3,–
CCCO [propan-1-ol],–,–,–,–,–,–,–,–,–,–,–,–,viscosity ([2]; 278.15 K): 3.191 ± 0.072 mPa·s; speed of sound ([2]; 278.15 K): 1275.5 ± 0.82 m/s; mass density ([2]; 278.15 K): 815.46 ± 2 kg/m3; viscosity ([2]; 298.15 K): 1.936 ± 0.07 mPa·s; speed of sound ([2]; 298.15 K): 1205.3 ± 0.8 m/s; mass density ([2]; 298.15 K): 799.55 ± 2 kg/m3; viscosity ([2]; 318.15 K): 1.242 ± 0.069 mPa·s; speed of sound ([2]; 318.15 K): 1137.5 ± 0.78 m/s; mass density ([2]; 318.15 K): 783.18 ± 2 kg/m3; viscosity ([2]; 338.15 K): 0.836 ± 0.068 mPa·s; speed of sound ([2]; 338.15 K): 1070.8 ± 0.76 m/s; mass density ([2]; 338.15 K): 765.96 ± 2 kg/m3
CCCO [propan-1-ol] + CCn1cc[n+](C)c1.O=S(=O)([N-]S(=O)(=O)C(F)(F)F)C(F)(F)F,3.191 ± 0.072 mPa·s,1275.5 ± 0.82 m/s,815.46 ± 2 kg/m3,1.936 ± 0.07 mPa·s,1205.3 ± 0.8 m/s,799.55 ± 2 kg/m3,1.242 ± 0.069 mPa·s,1137.5 ± 0.78 m/s,783.18 ± 2 kg/m3,0.836 ± 0.068 mPa·s,1070.8 ± 0.76 m/s,765.96 ± 2 kg/m3,–
